# Experimental data from patent US9657110B2, “Polypeptides and use thereof” (ASTON UNIVERSITY, priority 2011, dated 2017).
# Tests used:
# HOB cells = assay: Cell adhesion assay (attachment and spreading) on FN or TG-FN matrix with RGD or RAD peptide; format: cell-based, human; conditions: for effect of PKCα inhibitors on the compensatory effect of P1 peptide on RGD-induced loss of cell adhesion: Go6976 5 μM, GK21 8 μM, P1 100 ug/ml, FN; for effect on the compensatory effects of TG-FN on attachment and spreading in the presence of RGD: HOB cells on TG-FN, peptide 100-400 μg/ml, RGD 150 μg/ml
# Method: The cell adhesion assay was carried out as previously described (Wang et al., 2010). Briefly, 96-well plastic tissue culture plates were coated with 5 μg/ml FN in 50 mM Tris-HCl, pH 7.4 at 4° C. overnight, after washing three times with 100 μl of 50 mM Tris-HCl, pH7.4, gplTG (20 μg/ml) in 2 mM EDTA in PBS, pH 7.4 was added to the wells for 1 h at 37° C. and the wells were washed three times with 50 mM Tris-HCl, pH7.4. Serum-starved (for 16 h) HOB cells with different treatments as introduced below in serum-free medium were detached by trypsinization and then treated with trypsin inhibitor. Cells were washed three times with serum free medium and seeded onto either FN or TG-FN matrix for 20-40 min. Peptides P1 or scrambled P1 (P1s), were added at concentrations between 100 μg/ml and 300 μg/ml. […] Attached cells were washed once with PBS, pH 7.4 and then fixed with 3.7% paraformaldehyde, further permeabilised with 0.1% (v/v) Triton® X-100 detergent in PBS, and co-stained with May-Grunwald and Giemsa stains as described previously (Jones et al., 1997). Images of stained cells from non-overlapping fields of view were photographed at 20× magnification and analyzed using the imaging analysis program Scion Image (National Institute of Health). Cell attachment and spreading were quantified, and the number of cells per image was assessed as described previously (Telci et al., 2008). Cell attachment on FN without peptide was considered as the control value for all the experiments unless stated otherwise. The mean number of attached cells form three wells was calculated and that of the control was considered as 100%. The mean number of attached cells (cell attachment) for each sample was then expressed as the percentage of cell attachment on FN. The mean percentage of attached cells that are spread (cell spreading) for each sample was determined separately, and the mean percentage of spread cells on FN control was expressed as 100%. The mean percentage of spread cells for each sample was then normalised against that of FN control Cell attachment on FN without the RGD peptide was considered as the control value for most of the experiments unless stated otherwise The mean number of attached cells from three wells was calculated and that of the control was considered as 100%. The mean number of attached cells (cell attachment) for each sample was then expressed as the percentage of cell attachment on FN. The mean percentage of attached cells that are spread (cell spreading) for each sample was determined separately, and the mean percentage of spread cells on the FN control was expressed as 100%. The mean percentage of spread cells for each sample was then normalised against that of FN control Cell pre-treatments included: PKCα inhibitor Go6976 (5 μM) or GK21 peptide (8 μM) for 1 h in serum-free medium prior to cell detachment; heparinase (15 mU/ml) or chondroitinase (15 mU/ml) to cells in suspension in serum free medium for 1 h. For the detection of the signalling molecules via Western blotting, the cell adhesion assay was performed in 60 mm Petri dishes and cells were collected into cell lysis buffer (Santa Cruz, UK) as described previously and pre-cleared by centrifugation at 300×g for 10 min. Western blotting was performed with specific anti-p-397 FAK or p-ERK1/2 antibodies. Membranes were stripped (Telci et al., 2008) and total FAK and ERK1/2 detected using anti-FAK and anti-ERK1/2 antibodies as listed in Table 2, while α-tubulin was used as an equal loading standard (Wang et al., 2011).
# Cell adhesion and spreading assays were performed as described above in Example 1 method ‘Cell adhesion assay’
# [1] = Binding of TG2 to heparin SEPHAROSE, elution with NaCl gradient; conditions: for NaCl concentration of optimum elution / major peak from heparin SEPHAROSE: lysate of HEK293T/17 cells, 0-1M NaCl gradient
# Method: HEK cells, transiently transfected with wild-type and mutant TG2 were washed twice with ice cold PBS, pH 7.4 and lysed by the addition of 150 μl of 20 mM Tris-HCl pH 7.4, 10 mM EGTA, 2 mM EDTA, 1 mM NaF and 1 mM Na3VO4. After clarification by centrifugation, lysates were mixed with 450 μl of 50 mM Tris-HCl, 1 mM EDTA, 1 mM DTT, pH 7.5 and applied to a 5 ml Heparin SEPHAROSE® column (GE Healthcare) equilibrated in 50 mM Tris-HCl, 1 mM EDTA, 1 mM DTT pH 7.5 (buffer) at a flow rate of 1 ml/min. For the analysis of GTP-bound TG2 (closed conformation), lysates were pre-incubated for 1 h at room temperature with 0.5 mM GTP in 50 mM Tris-HCl, 2 mM MgCl2, 1 mM EDTA, 1 mM DTT pH 7.5. For the analysis of inhibitor-reacted TG2 (open conformation), lysates were incubated with 0.5 mM of irreversible inhibitor R281 (Griffin et al., 2008) and 10 mM CaCl2. The column was washed with 25 ml of buffer and protein was eluted with a linear gradient of increasing NaCl concentration (0-1M) in buffer. Fractions were assayed for TG2 activity and analysed for the presence of TG2 antigen by SDS-PAGE and Western blotting using CUB7402.
# NIH 3T3 cells = assay: Detection of TG2 at cell surface (biotinylation), in ECM and in culture medium of transfected cells; format: cell-based, mouse; conditions: transfected NIH 3T3 cells
# Method: Cell surface proteins were labelled by biotinylation as described previously (Wang et al., 2010). Briefly, cell monolayers were rinsed three times with ice-cold PBS pH 8.0 and labelled with 0.8 mM sulfo-NHS-LC-biotin dissolved in PBS pH 8.0 at 4° C. for 20 min. Cells were then washed with 50 mM Tris-HCl, pH 8.0 and lysed with 1% SDS at 4° C. in PBS pH8.0. Following denaturation at 95° C., cell lysates were clarified by centrifugation at 14,000×g at 20° C. and 200 μg of protein was incubated overnight at 4° C. with NEUTRAVIDIN® avidin protein-Agarose resin. After washing three times with PBS pH 8.0, the biotin-labelled proteins were dissolved in 2× Laemmli buffer separated by SDS-PAGE and subjected to Western blotting.
# Following transfection, cells were incubated for 24 h with 10% (v/v) serum, which was replaced with 1% (v/v) serum and TG2 expression was allowed to proceed for a further 48 h. Proteins from 1 ml of medium were precipitated by the addition of ice cold 20% (w/v) trichloroacetic acid (TCA) to a final concentration of 10% (w/v) Pelleted proteins were then washed once with ice cold 10% (w/v) TCA, ethanol-acetone (1:1) and acetone, and resuspended in 2× Laemmli buffer (Sigma-Aldrich, UK) and analysed by SDS-PAGE and Western blot analysis using monoclonal anti-TG2 antibody (Cub7402). The remaining cells were detached with 2 mM EDTA in PBS, pH 7.4 and the ECM was extracted with 0.1% (w/v) deoxycholate in PBS, pH 7.4. The residual deoxycholate-insoluble ECM proteins were dissolved in 2× Laemmli buffer for further analysis by SDS-PAGE and Western blotting using Cub7402.
molecule,measurement,setting,value
"GENPIYKSAVTTVVNPIYEGKRQIKIWFQNRRMKWKK (listed as Homo sapiens) [GK21, reference compound]",effect of PKCα inhibitors on the compensatory effect of P1 peptide on RGD-induced loss of cell adhesion,HOB cells,inhibition of the compensatory effect
"Cn1c2ccccc2c2c3c(c4c5ccccc5n(CCC#N)c4c21)CNC3=O [Go6976, reference compound]",effect of PKCα inhibitors on the compensatory effect of P1 peptide on RGD-induced loss of cell adhesion,HOB cells,inhibition of the compensatory effect
NPKFLKNA (listed as Homo sapiens) [fragment peptide derived from P1],effect on the compensatory effects of TG-FN on attachment and spreading in the presence of RGD,HOB cells,could not abrogate
same,concentration at which peptide was inhibitory to cell attachment and spreading,"HOB cells; HOB cells, tested 100-400 μg/ml",above 200 μg/ml
GRDCSRRSS (listed as Homo sapiens) [fragment peptide derived from P1],effect on the compensatory effects of TG-FN on attachment and spreading in the presence of RGD,HOB cells,"able to inhibit the compensatory effects of TG-FN on attachment and spreading, in a dose-dependent manner"
"HS2: TG2 mutant K205A, R209A (NPKFLKNAGRDCSRRSS)",binding to heparin SEPHAROSE (in words),[1]; compared with wt TG2,lost the capability to bind with high affinity to heparin
same,NaCl concentration of optimum elution / major peak from heparin SEPHAROSE,[1],60 mM NaCl
same,presence in spent culture medium,NIH 3T3 cells; Western blot,detectable
same,presence in the ECM,NIH 3T3 cells; Western blot,not detectable
same,presence on the cell surface,"NIH 3T3 cells; biotinylation and Western blot, vs wild-type TG2",detected but in reduced amounts
TG2: wild type human tissue transglutaminase expressed in transfected cells (protein) AEELVLERCDLELETNGRDHHTADLCREKLVVRRGQPFWLTLHFEGRNYEASVDSLTFSVVTGPAPSQEAGTKARFPLRDAVEEGDWTATVVDQQDCTLSLQLTTPANAPIGLYRLSLEASTGYQGSSFVLGHFILLFNAWCPADAVYLDSEEERQEYVLTQQGFIYQGSAKFIKNIPWNFGQFEDGILDICLILLDVNPKFLKNAGRDCSRRSSPVYVGRVVSGMVNCNDDQGVLLGRWDNNYGDGVSPMSWIGSVDILRRWKNHGCQRVKYGQCWVFAAVACTVLRCLGIPTRVVTNYNSAHDQNSNLLIEYFRNEFGEIQGDKSEMIWNFHCWVESWMTRPDLQPGYEGWQALDPTPQEKSEGTYCCGPVPVRAIKEGDLSTKYDAPFVFAEVNADVVDWIQQDDGSVHKSINRSLIVGLKISTKSVGRDEREDITHTYKYPEGSSEEREAFTRANHLNKLAEKEETGMAMRIRVGQSMNMGSDFDVFAHITNNTAEEYVCRLLLCARTVSYNGILGPECGTKYLLNLNLEPFSEKSVPLCILYEKYRDCLTESNLIKVRALLVEPVINSYLLAERDLYLENPEIKIRILGEPKQKRKLVAEVSLQNPLPVALEGCTFTVEGAGLTEEQKTVEIPDPVEAGEEVKVRMDLLPLHMGLHKLVVNFESDKLKAVKGFRNVIIGPA,NaCl concentration of major peak from heparin SEPHAROSE in the presence of GTP,"[1]; 0.5 mM GTP, compact conformation",about 330 mM NaCl
same,NaCl concentration of major peak from heparin SEPHAROSE after reaction with inhibitor R281,"[1]; 0.5 mM R281, extended conformation",250 mM NaCl
same,NaCl concentration of optimum elution / major peak from heparin SEPHAROSE,[1],330 mM NaCl
"C277S: TG2 active site mutant, extended conformation (protein, UniProt P21980 2-687, looked up, variant C277S) Protein-glutamine …: AEELVLERCDLELETNGRDHHTADLCREKLVVRRGQPFWLTLHFEGRNYEASVDSLTFSVVTGPAPSQEAGTKARFPLRDAVEEGDWTATVVDQQDCTLSLQLTTPANAPIGLYRLSLEASTGYQGSSFVLGHFILLFNAWCPADAVYLDSEEERQEYVLTQQGFIYQGSAKFIKNIPWNFGQFEDGILDICLILLDVNPKFLKNAGRDCSRRSSPVYVGRVVSGMVNCNDDQGVLLGRWDNNYGDGVSPMSWIGSVDILRRWKNHGCQRVKYGQSWVFAAVACTVLRCLGIPTRVVTNYNSAHDQNSNLLIEYFRNEFGEIQGDKSEMIWNFHCWVESWMTRPDLQPGYEGWQALDPTPQEKSEGTYCCGPVPVRAIKEGDLSTKYDAPFVFAEVNADVVDWIQQDDGSVHKSINRSLIVGLKISTKSVGRDEREDITHTYKYPEGSSEEREAFTRANHLNKLAEKEETGMAMRIRVGQSMNMGSDFDVFAHITNNTAEEYVCRLLLCARTVSYNGILGPECGTKYLLNLNLEPFSEKSVPLCILYEKYRDCLTESNLIKVRALLVEPVINSYLLAERDLYLENPEIKIRILGEPKQKRKLVAEVSLQNPLPVALEGCTFTVEGAGLTEEQKTVEIPDPVEAGEEVKVRMDLLPLHMGLHKLVVNFESDKLKAVKGFRNVIIGPA",NaCl concentration of optimum elution / major peak from heparin SEPHAROSE,[1],250 mM NaCl
